What follows are molecules tested against Human DAAO (Homo sapiens, UniProt P14920) (assay: D-Amino Acid Oxidase enzyme assay (D-serine, horseradish peroxidase/Amplex Red coupled fluorescence)). Settings: D-serine 5 mM, pH 7.4.
Assay type: biochemical
Method: DAAO enzyme activity was measured using the substrate D-serine at its Michaelis-Menton Km of 5 mM. The rate of oxidation is measured as a rate of production of hydrogen peroxide, which was detected using the enzyme horseradish peroxidase (Sigma cat. No. P-8375). This coupled reaction uses the enzyme substrate Amplex Red (Molecular Probes), which is converted to the fluorescent reaction product, resorufin (excitation 530-560 nm; emission ˜590 nm). Although DAAO has a higher pH optimum, all reagents were prepared in 50 mM sodium phosphate buffer at pH 7.4 and inhibition curves were generated at this pH.
The final concentrations of components in 200 μl total volume per well (black clear-bottom 96-well plate, Costar) were:
(a) Horseradish peroxidase: 4 Units per mL
(d) Amplex Red reagent: 50 uM
The reactions were initiated by addition of DAAO enzyme and the fluorescence was monitored. H2O2 was added at 16 uM final concentration to a control well on each plate to test for compound interference with a coupled enzyme. Inhibition curves were generated in the presence of varying concentrations of the inhibitor and IC50 values were calculated for each inhibitor.

Human DAAO, sequence (P14920 whole entry): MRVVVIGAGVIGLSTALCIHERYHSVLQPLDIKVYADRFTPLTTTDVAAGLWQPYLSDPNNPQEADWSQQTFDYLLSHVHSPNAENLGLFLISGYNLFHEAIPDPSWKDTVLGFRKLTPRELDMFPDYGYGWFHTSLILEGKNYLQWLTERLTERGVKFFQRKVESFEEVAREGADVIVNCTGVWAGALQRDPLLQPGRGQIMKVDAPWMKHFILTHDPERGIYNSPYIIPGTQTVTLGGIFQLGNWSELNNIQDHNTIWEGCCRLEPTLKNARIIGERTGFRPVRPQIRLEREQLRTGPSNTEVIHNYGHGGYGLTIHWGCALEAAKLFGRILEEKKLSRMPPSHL

Structure (SMILES) | IC50 [µM]
O=C(O)c1cc2c([nH]1)CCC2Cc1cccc(F)c1 (stereo not shown) [Compound 54, 4-(3-fluorobenzyl)-1,4,5,6-tetrahydrocyclopenta[b]pyrrole-2-carboxylic acid] | ≤ 0.1
O=C(O)c1cc2c([nH]1)CC/C2=C\c1ccc(F)cc1 [Compound 13, (E)-4-(4-fluorobenzylidene)-1,4,5,6-tetrahydrocyclopenta[b]pyrrole-2-carboxylic acid] | ≤ 100
C#Cc1cccc(CC2CCc3[nH]c(C(=O)O)cc32)c1 (stereo not shown) [Compound 74, 4-(3-ethynylbenzyl)-1,4,5,6-tetrahydrocyclopenta[b]pyrrole-2-carboxylic acid] | ≤ 0.1
O=C(O)c1cc2c([nH]1)C(CCc1cccc3ccccc13)CC2 (stereo not shown) [Compound 132, 6-(2-(naphthalen-1-yl)ethyl)-1,4,5,6-tetrahydrocyclopenta[b]pyrrole-2-carboxylic acid] | ≤ 1
O=C(O)c1cc2c([nH]1)CCC2CC(F)(F)F (stereo not shown) [Compound 38, 4-(2,2,2-trifluoroethyl)-1,4,5,6-tetrahydrocyclopenta[b]pyrrole-2-carboxylic acid] | ≤ 100
O=C(O)c1cc2c([nH]1)CCC2NCc1ccc(Cl)cc1 (stereo not shown) [Compound 108, 4-(4-chlorobenzylamino)-1,4,5,6-tetrahydrocyclopenta[b]pyrrole-2-carboxylic acid] | ≤ 100
CCCC1CCc2cc(C(=O)O)[nH]c21 (stereo not shown) [Compound 110, 6-propyl-1,4,5,6-tetrahydrocyclopenta[b]pyrrole-2-carboxylic acid] | ≤ 1
O=C(O)c1cc2c([nH]1)C(Cc1cccc(Br)c1)CC2 (racemic) [Compound 125, 6-(3-bromobenzyl)-1,4,5,6-tetrahydrocyclopenta[b]pyrrole-2-carboxylic acid] | ≤ 0.1
O=C(O)c1cc2c([nH]1)CCC2Cc1ccc(F)c(Cl)c1 (racemic) [Compound 48, 4-(3-chloro-4-fluorobenzyl)-1,4,5,6-tetrahydrocyclopenta[b]pyrrole-2-carboxylic acid] | ≤ 0.1
O=C(O)c1[nH]c2c(c1Br)C(CCc1ccccc1)CC2 (stereo not shown) [Compound 147, 3-bromo-4-phenethyl-1,4,5,6-tetrahydrocyclopenta[b]pyrrole-2-carboxylic acid] | ≤ 1
O=C(O)c1cc2c([nH]1)C(c1cccc(F)c1)CC2 (stereo not shown) [Compound 111, 6-(3-fluorophenyl)-1,4,5,6-tetrahydrocyclopenta[b]pyrrole-2-carboxylic acid] | ≤ 1
O=C(O)c1cc2c([nH]1)C[C@@H]1[C@H](CCc3ccccc3)[C@H]21 (racemic) [Compound 143, ±(1S,1aS,5aR)-1-phenethyl-1a,4,5,5a-tetrahydro-1H-4-aza-cyclopropa[α]pentalene-3-carboxylic acid] | ≤ 0.1
Cc1cc(F)ccc1CC1CCc2[nH]c(C(=O)O)cc21 (racemic) [Compound 51, 4-(4-fluoro-2-methylbenzyl)-1,4,5,6-tetrahydrocyclopenta[b]pyrrole-2-carboxylic acid] | ≤ 0.1
O=C(O)c1cc2c([nH]1)C(Cc1ccc(-c3ccccc3)cc1)CC2 (stereo not shown) [Compound 133, 6-(biphenyl-4-ylmethyl)-1,4,5,6-tetrahydrocyclopenta[b]pyrrole-2-carboxylic acid] | ≤ 1
C[C@H]1[C@H]2Cc3[nH]c(C(=O)O)cc3[C@@H]12 (racemic) [Compound 141, ±(1S,1aS,5aR)-1-methyl-1a,4,5,5a-tetrahydro-1H-4-aza-cyclopropa[α]pentalene-3-carboxylic acid] | ≤ 0.1
O=C(O)c1cc2c([nH]1)CCC2CCc1ccccc1 (single isomer, unassigned) [Compound 20, 4-phenethyl-1,4,5,6-tetrahydrocyclopenta[b]pyrrole-2-carboxylic acid] | ≤ 100
O=C(O)c1cc2c([nH]1)CCC2Cc1ccccc1 (stereo not shown) [Compound 17, 4-benzyl-1,4,5,6-tetrahydrocyclopenta[b]pyrrole-2-carboxylic acid] | ≤ 0.1
O=C(O)c1cc2c([nH]1)C(Cc1cccc(O)c1)CC2 (stereo not shown) [Compound 128, 6-(3-hydroxybenzyl)-1,4,5,6-tetrahydrocyclopenta[b]pyrrole-2-carboxylic acid] | ≤ 0.1
O=C(O)c1cc2c([nH]1)CCC2Cc1cccc(C2CCOC2)c1 (stereo not shown) [Compound 90, 4-(3-(tetrahydrofuran-3-yl)benzyl)-1,4,5,6-tetrahydrocyclopenta[b]pyrrole-2-carboxylic acid] | ≤ 1

More lines, now with the values ahead:

IC50 [µM] | Structure (SMILES)
≤ 1 | O=C(O)c1cc2c([nH]1)CCC2c1ccc(Cc2ccccc2)cc1 (stereo not shown) [Compound 107, 4-(4-benzylphenyl)-1,4,5,6-tetrahydrocyclopenta[b]pyrrole-2-carboxylic acid]
≤ 1 | O=C(O)c1cc2c([nH]1)CCC2Cc1cccc(-c2ccc(C(F)(F)F)cc2)c1 (stereo not shown) [Compound 84, 4-((4′-(trifluoromethyl)biphenyl-3-yl)methyl)-1,4,5,6-tetrahydrocyclopenta[b]pyrrole-2-carboxylic acid]
≤ 100 | O=C(O)c1cc2c([nH]1)C(Cc1cccc(Br)c1)CC2 (single isomer, unassigned) [Compound 126, 6-(3-bromobenzyl)-1,4,5,6-tetrahydrocyclopenta[b]pyrrole-2-carboxylic acid]
≤ 1 | COc1ccc(CC2CCc3[nH]c(C(=O)O)cc32)cc1OC (stereo not shown) [Compound 69, 4-(3,4-dimethoxybenzyl)-1,4,5,6-tetrahydrocyclopenta[b]pyrrole-2-carboxylic acid]
≤ 100 | O=C(O)c1cc2c([nH]1)CCC2c1ccc(-c2ccccc2)cc1 (stereo not shown) [Compound 106, 4-(biphenyl-4-yl)-1,4,5,6-tetrahydrocyclopenta[b]pyrrole-2-carboxylic acid]
≤ 0.1 | O=C(O)c1cc2c([nH]1)CCC2Cc1ccc(Cl)cc1 (racemic) [Compound 14, 4-(4-chlorobenzyl)-1,4,5,6-tetrahydrocyclopenta[b]pyrrole-2-carboxylic acid]
≤ 0.1 | O=C(O)c1cc2c([nH]1)CCC2Cc1cccc(-c2ccc[nH]2)c1 (racemic) [Compound 91, 4-(3-(1H-pyrrol-2-yl)benzyl)-1,4,5,6-tetrahydrocyclopenta[b]pyrrole-2-carboxylic acid]
≤ 1 | CC1CCc2[nH]c(C(=O)O)cc21 (single isomer, unassigned) [Compound 5, 4-methyl-1,4,5,6-tetrahydrocyclopenta[b]pyrrole-2-carboxylic acid]
≤ 1 | CC(C)c1ccc(CC2CCc3[nH]c(C(=O)O)cc32)cc1 (stereo not shown) [Compound 33, 4-(4-isopropylbenzyl)-1,4,5,6-tetrahydrocyclopenta[b]pyrrole-2-carboxylic acid]
≤ 100 | O=C(O)c1cc2c([nH]1)CCC2Cc1ccc(Br)cc1 (single isomer, unassigned) [Compound 61, 4-(4-bromobenzyl)-1,4,5,6-tetrahydrocyclopenta[b]pyrrole-2-carboxylic acid]
≤ 1 | CC1CCc2cc(C(=O)O)[nH]c21 (stereo not shown) [Compound 109, 6-methyl-1,4,5,6-tetrahydrocyclopenta[b]pyrrole-2-carboxylic acid]
≤ 1 | O=C(O)c1cc2c([nH]1)CCC2Cc1cccc(-c2ccc(CO)cc2)c1 (stereo not shown) [Compound 86, 4-((4′-(hydroxymethyl)biphenyl-3-yl)methyl)-1,4,5,6-tetrahydrocyclopenta[b]pyrrole-2-carboxylic acid]
≤ 1 | O=C(O)c1cc2c([nH]1)CCCC2 [Compound 30, 4,5,6,7-tetrahydro-1H-indole-2-carboxylic acid]
≤ 100 | Cc1cc(C)cc(CC2CCc3[nH]c(C(=O)O)cc32)c1 (stereo not shown) [Compound 72, 4-(3,5-dimethylbenzyl)-1,4,5,6-tetrahydrocyclopenta[b]pyrrole-2-carboxylic acid]
≤ 1 | O=C(O)c1cc2c([nH]1)C(c1ccc(-c3ccccc3)cc1)CC2 (single isomer, unassigned) [Compound 119, 6-(biphenyl-4-yl)-1,4,5,6-tetrahydrocyclopenta[b]pyrrole-2-carboxylic acid]
≤ 100 | O=C(O)c1cc2c([nH]1)CCC2Cc1cccc(-c2ccco2)c1 (racemic) [Compound 87, 4-(3-(furan-2-yl)benzyl)-1,4,5,6-tetrahydrocyclopenta[b]pyrrole-2-carboxylic acid]
≤ 1 | O=C(O)c1cc2c([nH]1)C(c1ccc(-c3ccccc3)cc1)CC2 (racemic) [Compound 118, 6-(biphenyl-4-yl)-1,4,5,6-tetrahydrocyclopenta[b]pyrrole-2-carboxylic acid]

These molecules were tested on D-serine levels in the cerebellum (assay: In vivo elevation of D-serine levels in the cerebellum). Settings: mice, intraperitoneal, dose 30 mg/kg, 2 hours.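 Also: Cutoffs are cerebellum D-serine in nmol/g wet tissue weight.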
Design: species or system Mice (C57BL/6)
Method: […] Animals are sacrificed at either 2 or 6 h post compound administration with an N=3 per time point. At sacrifice, trunk blood is collected into tubes containing potassium EDTA, which are then centrifuged to permit isolation of plasma. The cerebellum is dissected from each animal. Plasma and cerebellum samples are stored at −80° C. until samples are analyzed (LC/MS/MS).

Structure (SMILES) | Cerebellum D-serine at 2 hours
O=C(O)c1cc2c([nH]1)CCC2Cc1cccc(F)c1 (stereo not shown) [Compound 54, 4-(3-fluorobenzyl)-1,4,5,6-tetrahydrocyclopenta[b]pyrrole-2-carboxylic acid] | (+) (2.5-4.9 = (+))
O=C(O)c1cc2c([nH]1)CCC2Cc1ccc(F)c(Cl)c1 (single isomer, unassigned) [Compound 50, 4-(3-chloro-4-fluorobenzyl)-1,4,5,6-tetrahydrocyclopenta[b]pyrrole-2-carboxylic acid] | (++) (>5 = (++))

Same assay, conditions: mice, intraperitoneal, dose 30 mg/kg, 6 hours

Structure (SMILES) | Cerebellum D-serine at 6 hours
O=C(O)c1cc2c([nH]1)CCC2Cc1cccc(F)c1 (stereo not shown) [Compound 54, 4-(3-fluorobenzyl)-1,4,5,6-tetrahydrocyclopenta[b]pyrrole-2-carboxylic acid] | (+) (2.5-4.9 = (+))
O=C(O)c1cc2c([nH]1)CCC2Cc1ccc(F)c(Cl)c1 (single isomer, unassigned) [Compound 50, 4-(3-chloro-4-fluorobenzyl)-1,4,5,6-tetrahydrocyclopenta[b]pyrrole-2-carboxylic acid] | (+) (2.5-4.9 = (+))
